Source: patent US8367713B2, “Inhibition and dispersion of bacterial biofilms with imidazole-triazole derivatives” (North Carolina State University, priority 2008, dated 2013)
Where a name gives a salt, the structure may show the parent alone. Read-outs that look alike come from different tables or passages of the source.

Tests used:
A. baumannii biofilms = test: Static bacterial biofilm inhibition assay (crystal violet), A. baumannii; type: cell-based, Acinetobacter baumannii; design: inhibition of A. baumannii biofilm development: dose or concentration left out as unconfirmed; details: for IC50: read-out: IC50 of biofilm inhibition, A. baumannii
Method: (§1) Each 2-AIT conjugate was initially screened at 300 μM for their ability to inhibit P. aeruginosa PAO1 and PA14 biofilms, A. baumannii biofilms and B. bronchiseptica Rb50 biofilms using a crystal violet reporter assay (G. A. O'Toole, R. Kolter, Molecular Microbiology 1998, 2, 295-304). […] This is an order of magnitude increase in activity when compared to DHS (J. J. Richards, R. W. Huigens, T. E. Ballard, A. Basso, J. Cavanagh, C. Melander, Chemical Communications 2008, 14, 1698-1700). […] 6 also dispersed pre-formed A. baumanni biofilms with an EC50 of 400 μM (FIG. 2A).
(§2) General Static Bacterial Biofilm Inhibition Assay Procedure for A. baumannii, P. aeruginosa, B. bronchiseptica and S. aureus: Biofilm inhibition assays were performed by taking an overnight culture of bacterial strain and subculturing it at an OD600 of 0.01 into the necessary growth liquid medium (LB for A. baumannii, LBNS for P. aeruginosa, Stainer Scholte medium that was supplemented with […] of 100× nutrient complex for B. bronchiseptica and TSBG for S. aureus) for the strain. The compound being tested was then added at a predetermined concentration and then aliquoted (100 μL) into the wells of a 96-well PVC microtiter plate (Wells not used for samples are filled with 100 μL of de-ionized water). Plates were then wrapped in GLAD Press n′ Seal® and incubated under stationary conditions at 37° C. After 24 hours, the media was discarded from the wells and the plates were washed thoroughly with tap water. Plates were then stained with 100 μL of 0.1% solution of crystal violet (CV) and then incubated at an ambient temperature for 30 minutes. Sample plates were then washed with tap water again and the remaining stain was solubilized with 200 μl, of 95% ethanol. Biofilm inhibition was quantitated by measuring the OD540 for each well by transferring 125 μL of the solubilized CV stain into a polystyrene microtiter dish for analysis.

[1] = system: Staphylococcus aureus biofilm; test: Static bacterial biofilm inhibition assay (crystal violet), S. aureus; type: cell-based
Method: as §2

[2] = system: P. aeruginosa PAO1 biofilms; test: Static bacterial biofilm inhibition assay (crystal violet), PAO1; type: cell-based; details: Pseudomonas aeruginosa
Method: as §1, §2

[3] = system: P. aeruginosa PA14 biofilms; test: Static bacterial biofilm inhibition assay (crystal violet), PA14; type: cell-based; details: Pseudomonas aeruginosa
Method: as §1, §2

[4] = system: pre-formed B. bronchiseptica Rb50 biofilms; test: Static bacterial biofilm dispersion assay, Rb50; type: cell-based; details: Bordetella bronchiseptica
Method: (§3) General Static Bacterial Biofilm Dispersion Assay Procedure for A. baumannii, P. aeruginosa and S. aureus: Dispersion assays were performed by taking an overnight culture of bacterial strain and subculturing it at an OD600 of 0.01 into the necessary growth liquid medium. The resulting bacterial suspension was aliquoted (100 μL) into the wells of a 96-well PVC microtiter plate. Plates were then wrapped in GLAD Press n′ Seal® followed by an incubation under stationary conditions at an ambient temperature. After 24 hours, the media was discarded from the wells and the plates were washed thoroughly with tap water. Predetermined concentrations of the compound were then made in the same medium used to initially grow the biofilms and then aliquoted (100 μL) into the wells of the 96-well PVC microtiter plate with the established biofilms. Plates were then wrapped in GLAD Press n′ Seal® and incubated under stationary conditions at 37° C. After 24 hours, the media was discarded from the wells and the plates were washed thoroughly with tap water. Plates were then stained with 100 μL of 0.1% solution of crystal violet (CV) and then incubated at room temperature for 30 minutes. Plates were then washed with tap water again and the remaining stain was solubilized with 200 μL of 95% ethanol. Biofilm dispersion was quantitated by measuring the OD540 for each well by transferring 125 μL of the solubilized CV stain into a polystyrene microtiter dish for analysis.
General Static Bacterial Biofilm Dispersion Assay Procedure for B. bronchiseptica: This procedure is identical to the general dispersion procedure described above except that initial biofilm formation in the absence of the test compound was carried out at 37° C.

[5] = system: pre-formed P. aeruginosa PA14 biofilms; test: Static bacterial biofilm dispersion assay, PA14; type: cell-based; details: Pseudomonas aeruginosa
Method: as §3

[6] = system: B. bronchiseptica Rb50 biofilms; test: Static bacterial biofilm inhibition assay (crystal violet), Rb50; type: cell-based; details: Bordetella bronchiseptica, RB50BIOFILMS
Method: as §1, §2

[7] = system: pre-formed A. baumannii biofilms; test: Static bacterial biofilm dispersion assay, A. baumannii; type: cell-based; details: Acinetobacter baumannii
Method: as §3

[8] = system: A. baumannii, PAO1, PA14, Rb50, S. aureus (each bacterial strain); test: Planktonic growth curves and colony counts, each bacterial strain; type: cell-based; details: each bacterial strain grown in the presence of compound
Method: (§4) The OD600 was recorded at 1, 3, 4, 5, 6 and 24 hours.
(§5) General Colony Count Procedure for A. baumannii, P. aeruginosa, B. bronchiseptica and S. aeureus: Colony counts were performed by incubating either bacterial strain in the presence and absence of the test compound at 37° C. in culture tubes until the sample with the absence of the test compound reached an OD600 of 0.40 from a starting OD600 of 0.01. This typically took three to four hours. Once the OD600 of approximately 0.40 was observed, 100 μL were taken from each culture tube from which serial dilutions were made. Then, 10 μL were removed from each serial dilution and plated out on a square gridded petri-dish followed by 16 hours of incubation at 37° C. period (48 hours for B. bronchiseptica) to grow countable colonies. Viable bacteria were quantified through employment of the track-dilution method (Jett et al., Bio Techniques. 1997, 23, 648-650).

[9] = system: pre-formed S. aureus biofilms; test: Static bacterial biofilm dispersion assay, S. aureus; type: cell-based; details: Staphylococcus aureus
Method: as §3

[10] = system: pre-formed P. aeruginosa PAO1 biofilms; test: Static bacterial biofilm dispersion assay, PAO1; type: cell-based; details: Pseudomonas aeruginosa
Method: as §3

[11] = system: A. baumannii planktonic growth; test: Planktonic growth curves and colony counts, A. baumannii; type: cell-based, Acinetobacter baumannii; details: FIGS. 3A, 4A
Method: as §4, §5

E. coli = test: Biofilm inhibition at 100 μM, E. coli; type: cell-based; details: Escherichia coli
Method: Procedure to Determine the Inhibitory Effect of Test Compounds on E. faecium, MRSA, S. epidermidis, PAO1, PA14, E. Coli and MDRAB Biofilm Formation: Inhibition assays were performed by taking an overnight culture of bacterial strain and subculturing it at an OD600 of 0.01 into the necessary media (brain heart infusion for E. faecium, tryptic soy broth with a 0.5% glucose supplement (TSBG) for MRSA, Luria-Bertani (LB) media for MDRAB, Luria-Bertani media without NaCl (LBNS) for PAO1 and PA14, Luria-Bertani (LB) media for E. coli and tryptic soy broth with a 0.5% glucose supplement and a 3.0% NaCl supplement (TGN) for S. epidermidis. Stock solutions of predetermined concentrations of the test compound were then made in the necessary media. These stock solutions were aliquoted (100 μL) into the wells of the 96-well PVC microtiter plate. Sample plates were then wrapped in GLAD Press n′ Seal® followed by an incubation under stationary conditions for 24 h at 37° C. After incubation, the media was discarded from the wells and the plates were washed thoroughly with water. Plates were then stained with 100 μL of 0.1% solution of crystal violet (CV) and then incubated at ambient temperature for 30 min. […] Biofilm inhibition was quantitated by measuring the OD540 of each well in which a negative control lane wherein no biofilm was formed served as a background and was subtracted out. […]

MRSA = test: Biofilm inhibition at 100 μM, MRSA; type: cell-based; details: Staphylococcus aureus, read-out: MRSA % Inhibition
Method: Procedure to Determine the Inhibitory Effect of Test Compounds on E. faecium, MRSA, S. epidermidis, PAO1, PA14, E. Coli and MDRAB Biofilm Formation: Inhibition assays were performed by taking an overnight culture of bacterial strain and subculturing it at an OD600 of 0.01 into the necessary media (brain heart infusion for E. faecium, tryptic soy broth with a 0.5% glucose supplement (TSBG) for MRSA, Luria-Bertani (LB) media for MDRAB, Luria-Bertani media without NaCl (LBNS) for PAO1 and PA14, Luria-Bertani (LB) media for E. coli and tryptic soy broth with a 0.5% glucose supplement and a 3.0% NaCl supplement (TGN) for S. epidermidis. Stock solutions of predetermined concentrations of the test compound were then made in the necessary media. These stock solutions were aliquoted (100 μL) into the wells of the 96-well PVC microtiter plate. Sample plates were then wrapped in GLAD Press n′ Seal® followed by an incubation under stationary conditions for 24 h at 37° C. After incubation, the media was discarded from the wells and the plates were washed thoroughly with water. Plates were then stained with 100 μL of 0.1% solution of crystal violet (CV) and then incubated at ambient temperature for 30 min. Plates were washed with water again and the remaining stain was solubilized with 200 μL of 95% ethanol. A sample of 125 μL of solubilized CV stain from each well was transferred to the corresponding wells of a polystyrene microtiter dish. Biofilm inhibition was quantitated by measuring the OD540 of each well in which a negative control lane wherein no biofilm was formed served as a background and was subtracted out.
Biofilm inhibition has been tested for the following compounds, each of which was tested at a concentration of 100 μM.

Structure (SMILES)	IC50 [2] [µM]	EC50 [4] [µM]	EC50 [5] [µM]	IC50 (A. baumannii biofilms; Acinetobacter baumannii) [µM]	IC50 [6] [µM]	EC50 [7] [µM]	bactericidal / microbicidal activity (colony counts and growth curves) [8]	EC50 [9] [µM]	EC50 [10] [µM]	also measured
C/C(=C\c1ccccc1)Cn1cc(CCCn2ccnn2)nn1 [Compound 9, 1-(2-Methyl-3-phenyl-allyl)-4-(3-[1,2,3]triazol-1-yl-propyl)-1H-[1,2,3]triazole]	–	–	–	–	–	–	–	–	–	inhibition at 800 µM (A. baumannii biofilms; Acinetobacter baumannii, at the highest concentration studied (800 μM), read-out: inhibition of A. baumannii biofilm development): < 30%
C/C(=C\c1ccccc1)Cn1cc(Cc2c[nH]c(N)n2)nn1 [Compound 8, 4-[1-(2-Methyl-3-phenyl-allyl)-1H [1,2,3]triazol-4-ylmethyl]-1H-imidazol-2-ylamine hydrochloride]	–	–	–	–	–	–	–	–	–	inhibition of A. baumannii biofilm development (A. baumannii biofilms; (highest concentration tested)): < 50%
C/C(=C\c1ccccc1)Cn1cc(CCCCCCc2c[nH]c(N)n2)nn1 [Compound 12, 4-{6-[1-(2-Methyl-3-phenyl-allyl)-1H-[1,2,3]triazol-4-yl]-hexyl}-1H-imidazol-2-ylamine hydrochloride]	2.7	75	48	6.8	70	36	not due to microbicidal activity	37	51	IC50 [1]: 4600 nM; IC50 ([3]; P. aeruginosa PA14): 22000 nM
C/C(=C\c1ccccc1)Cn1cc(CCCc2c[nH]c(N)n2)nn1 [Compound 6, 5-{3-[1-(2-Methyl-3-phenyl-allyl)-1H-[1,2,3]triazol-4-yl]-propyl}-1H-imidazol-2-ylamine hydrochloride]	–	–	–	12	–	400	–	–	–	effect on planktonic growth (growth curves and colony counts) [11]: no effect on planktonic growth
CCCCCCCCCCCCCCNC(=O)Cn1cc(CCCc2c[nH]c(N)n2)nn1 [2-{4-[3-(2-amino-1H-imidazol-4-yl)-propyl]-[1,2,3]triazol-1-yl}-N-tetradecyl-acetamide hydrochloride]	–	–	–	–	–	–	–	–	–	inhibition at 100 µM (E. coli): 35.6 ± 0.6%; inhibition at 100 µM (MRSA): 90.8 ± 8%
Nc1ncc[nH]1 [2-Aminomidazole, reference compound]	–	–	–	–	–	–	–	–	–	activity against A. baumannii biofilm development (A. baumannii biofilms; up to 800 μM (highest concentration tested)): devoid of activity
CCCCCCCCCCNC(=O)Cn1cc(CCCc2c[nH]c(N)n2)nn1 [2-{4-[3-(2-amino-1H-imidazol-4-yl)-propyl]-[1,2,3]triazol-1-yl}-N-decyl-acetamide hydrochloride]	–	–	–	–	–	–	–	–	–	inhibition at 100 µM (E. coli): 62.7 ± 0.4%; inhibition at 100 µM (MRSA): 99 ± 1%
C/C(=C\c1ccccc1)Cn1cc(CCc2c[nH]c(N)n2)nn1 [Compound 7, 4-{2-[1-(2-Methyl-3-phenyl-allyl)-1H-[1,2,3]triazol-4-yl]-ethyl}-1H-imidazol-2-ylamine hydrochloride]	–	–	–	220	–	–	–	–	–	–
C/C(=C\c1ccccc1)Cn1cc(CCCCc2cnc(N)[nH]2)nn1 [Compound 10, 4-{4-[1-(2-Methyl-3-phenyl-allyl)-1H-[1,2,3]triazol-4-yl]-butyl}-1H-imidazol-2-ylamine]	15	59	35	2.8	23	210	not due to bactericidal activity	16	81	IC50 [1]: 7000 nM; IC50 ([3]; P. aeruginosa PA14): 4000 nM
C/C(=C\c1ccccc1)Cn1cc(CCCCCc2c[nH]c(N)n2)nn1 [Compound 11, 4-{5-[1-(2-Methyl-3-phenyl-allyl)-1H-[1,2,3]triazol-4-yl]-pentyl}-1H-imidazol-2-ylamine hydrochloride]	5.6	55	22	0.98	9.5	120	not due to microbicidal activity	2.6	11	IC50 ([1]; S. aureus, value in nM): 810 nM; IC50 ([3]; PA14, value in nM): 530 nM
